Data: patent US11891365B2, “3-alkyl-4-amido-bicyclic [4,5,0] hydroxamic acids as HDAC inhibitors” (Valo Health, Inc., priority 2015, dated 2024)

Target: T1, Full length human recombinant HDAC6 protein (Homo sapiens, UniProt Q9UBN7)
T1 sequence (Q9UBN7 1-1215): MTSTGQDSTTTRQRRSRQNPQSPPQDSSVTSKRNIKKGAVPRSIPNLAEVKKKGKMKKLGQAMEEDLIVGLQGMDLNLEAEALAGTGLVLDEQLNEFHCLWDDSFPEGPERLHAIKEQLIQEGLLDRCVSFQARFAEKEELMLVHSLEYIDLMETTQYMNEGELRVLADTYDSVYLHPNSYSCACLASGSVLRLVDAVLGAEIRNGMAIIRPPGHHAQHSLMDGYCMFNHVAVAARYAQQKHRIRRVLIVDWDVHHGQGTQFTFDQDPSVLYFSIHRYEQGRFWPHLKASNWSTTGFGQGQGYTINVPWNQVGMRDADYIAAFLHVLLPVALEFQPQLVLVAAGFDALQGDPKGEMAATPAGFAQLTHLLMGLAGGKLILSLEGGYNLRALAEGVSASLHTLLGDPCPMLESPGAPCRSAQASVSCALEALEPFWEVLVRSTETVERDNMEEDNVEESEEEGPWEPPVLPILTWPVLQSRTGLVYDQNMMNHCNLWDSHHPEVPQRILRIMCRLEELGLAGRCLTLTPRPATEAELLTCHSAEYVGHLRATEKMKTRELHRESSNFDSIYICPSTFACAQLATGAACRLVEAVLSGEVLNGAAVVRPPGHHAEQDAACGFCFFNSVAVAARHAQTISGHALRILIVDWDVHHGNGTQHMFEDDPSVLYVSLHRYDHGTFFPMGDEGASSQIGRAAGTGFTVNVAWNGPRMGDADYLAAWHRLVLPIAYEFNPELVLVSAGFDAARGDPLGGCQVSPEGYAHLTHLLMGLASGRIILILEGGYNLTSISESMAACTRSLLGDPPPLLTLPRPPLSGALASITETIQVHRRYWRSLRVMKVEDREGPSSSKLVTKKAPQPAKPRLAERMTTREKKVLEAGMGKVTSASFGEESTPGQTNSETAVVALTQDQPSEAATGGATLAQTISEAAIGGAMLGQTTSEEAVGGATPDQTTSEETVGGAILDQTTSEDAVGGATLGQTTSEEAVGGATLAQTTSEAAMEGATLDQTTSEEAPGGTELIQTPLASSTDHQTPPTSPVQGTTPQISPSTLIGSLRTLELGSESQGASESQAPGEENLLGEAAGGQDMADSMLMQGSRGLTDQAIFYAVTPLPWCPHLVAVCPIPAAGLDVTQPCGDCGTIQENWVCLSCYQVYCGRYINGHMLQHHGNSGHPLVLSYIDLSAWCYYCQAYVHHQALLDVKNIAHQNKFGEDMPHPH
Experiment: In vitro histone deacetylase assay: enzymatic HDAC6 electrophoretic mobility shift assay
Format: biochemical
Conditions: 1 nM enzyme, 2 μM peptide substrate RHKK(Ac)-NH2, 25° C., 12 concentrations; read-out: Inhibitory Concentration (IC50) Values against HDAC6, Activity Range

Structure (SMILES) | IC50 [nM]
C[C@H]1COc2cc(C(=O)NO)ccc2CN1C(=O)C1CC(OCc2ccccc2)C1 (stereo partly drawn) [(S)-4-(3-(benzyloxy)cyclobutane-1-carbonyl)-N-hydroxy-3-methyl-2,3,4,5-tetrahydrobenzo[f][1,4]oxazepine-8-carboxamide] | ≤ 100
CC(C)(C)OC(=O)N1CCC2(CCCC2C(=O)N2CCOc3cc(C(=O)NO)ccc3C2)C1 (stereo not drawn) [tert-butyl 6-(8-(hydroxycarbamoyl)-2,3,4,5-tetrahydrobenzo[f][1,4]oxazepine-4-carbonyl)-2-azaspiro[4.4]nonane-2-carboxylate] | 100 to 500
CC(=O)N1Cc2ccc(C(=O)NO)cc2OC[C@H]1C(C)C [(R)-4-acetyl-N-hydroxy-3-isopropyl-2,3,4,5-tetrahydrobenzo[f][1,4]oxazepine-8-carboxamide] | 100 to 500
C[C@H]1c2ccc(C(=O)NO)cc2OCCN1C(=O)[C@@]1(C)CCCOC1 [(S)-N-hydroxy-5-methyl-4-((S)-3-methyltetrahydro-2H-pyran-3-carbonyl)-2,3,4,5-tetrahydrobenzo[f][1,4]oxazepine-8-carboxamide] | ≤ 100
C[C@H]1COc2cc(C(=O)NO)ccc2CN1C(=O)CCOc1ccc(F)cc1 [(S)-4-(3-(4-fluorophenoxy)propanoyl)-N-hydroxy-3-methyl-2,3,4,5-tetrahydrobenzo[f][1,4]oxazepine-8-carboxamide] | ≤ 100
CN(C)C(=O)C1CN(C(=O)C2CCOCC2)Cc2ccc(C(=O)NO)cc2O1 (stereo not drawn) [N8-hydroxy-N2,N2-dimethyl-4-(tetrahydro-2H-pyran-4-carbonyl)-2,3,4,5-tetrahydrobenzo[f][1,4]oxazepine-2,8-dicarboxamide] | 100 to 500
COC[C@H]1CN(C(=O)C2CCOCC2)Cc2ccc(C(=O)NO)cc2O1 [(R)-N-hydroxy-2-(methoxymethyl)-4-(tetrahydro-2H-pyran-4-carbonyl)-2,3,4,5-tetrahydrobenzo[f][1,4]oxazepine-8-carboxamide] | 100 to 500
C[C@H]1COc2cc(C(=O)NO)ccc2CN1C(=O)C1CCN(C=O)CC1 [(S)-4-(1-formylpiperidine-4-carbonyl)-N-hydroxy-3-methyl-2,3,4,5-tetrahydrobenzo[f][1,4]oxazepine-8-carboxamide] | ≤ 100
CC1(C)CC(C(=O)N2CCOc3cc(C(=O)NO)ccc3C2)CCO1 (stereo not drawn) [4-(2,2-dimethyltetrahydro-2H-pyran-4-carbonyl)-N-hydroxy-2,3,4,5-tetrahydrobenzo[f][1,4]oxazepine-8-carboxamide] | 100 to 500
COc1cccc(C(=O)N2CCOc3cc(C(=O)NO)ccc3C2)c1 [N-hydroxy-4-(3-methoxybenzoyl)-2,3,4,5-tetrahydrobenzo[f][1,4]oxazepine-8-carboxamide] | 100 to 500
C[C@@H]1c2cc(C(=O)NO)ccc2OCCN1C(=O)C1CCOCC1 [(R)-N-hydroxy-5-methyl-4-(tetrahydro-2H-pyran-4-carbonyl)-2,3,4,5-tetrahydrobenzo[f][1,4]oxazepine-7-carboxamide] | ≤ 100
C[C@H]1COc2cc(C(=O)NO)ccc2CN1C(=O)[C@@]1(C)CCCCO1 [(S)-N-hydroxy-3-methyl-4-((R)-2-methyltetrahydro-2H-pyran-2-carbonyl)-2,3,4,5-tetrahydrobenzo[f][1,4]oxazepine-8-carboxamide] | 100 to 500
O=C(NO)c1ccc2c(c1)OCCN(C(=O)C1CCCCC1)C2 [4-(cyclohexanecarbonyl)-N-hydroxy-2,3,4,5-tetrahydrobenzo[f][1,4]oxazepine-8-carboxamide] | ≤ 100
C[C@H]1COc2cc(C(=O)NO)ccc2CN1C(=O)CC1CCCO1 (stereo partly drawn) [(3S)-N-hydroxy-3-methyl-4-(2-(tetrahydrofuran-2-yl)acetyl)-2,3,4,5-tetrahydrobenzo[f][1,4]oxazepine-8-carboxamide] | ≤ 100
O=C(NO)c1ccc2c(c1)OCCN(C(=O)c1cc(C(F)(F)F)cc(C(F)(F)F)c1)C2 [4-(3,5-bis(trifluoromethyl)benzoyl)-N-hydroxy-2,3,4,5-tetrahydrobenzo[f][1,4]oxazepine-8-carboxamide] | 100 to 500
